Experimental data taken from PubChem BioAssay AID2060500 (Molecular Pharmacology Branch, DTP, NCI, 2025).
pIC50: −log10 of the molar value. Values belong to the molecule of their own block, whether it stands above or below them.

Tested on: 596521-263-R-J1-PDC complex spheroids, viability % of control
Test: Anticancer human tumor 596521-263-R-J1-PDC patient-derived soft tissue sarcoma cell line growth inhibition [GQUAD]
Details: for pIC50: curve of first compound; for viability, T/C: stronger effect = lower value
How it was run: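 Multi-cell-type spheroids of tumor cells with HUVEC and mesenchymal stem cells, treated with drug combinations. Concentrations descend in half-log steps from near clinical Cmax, or from 10 microM where Cmax is unknown; viability read-out.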

[1] = second compound 0.0316 µM, first compound 0.0316 µM
[2] = second compound 0.0316 µM, first compound 0.1 µM
[3] = second compound 0.0316 µM, first compound 0.316 µM
[4] = second compound 0.0316 µM, first compound 1 µM
[5] = second compound 0.0316 µM, first compound 3.16 µM
[6] = second compound 0.0316 µM, first compound 10 µM
[7] = second compound 0.1 µM, first compound 0.0316 µM
[8] = second compound 0.1 µM, first compound 0.1 µM
[9] = second compound 0.1 µM, first compound 0.316 µM
[10] = second compound 0.1 µM, first compound 1 µM
[11] = second compound 0.1 µM, first compound 3.16 µM
[12] = second compound 0.1 µM, first compound 10 µM
[13] = second compound 0.316 µM, first compound 0.0316 µM
[14] = second compound 0.316 µM, first compound 0.1 µM
[15] = second compound 0.316 µM, first compound 0.316 µM
[16] = second compound 0.316 µM, first compound 1 µM
[17] = second compound 0.316 µM, first compound 3.16 µM
[18] = second compound 0.316 µM, first compound 10 µM
[19] = second compound 1 µM, first compound 0.0316 µM
[20] = second compound 1 µM, first compound 0.1 µM
[21] = second compound 1 µM, first compound 0.316 µM
[22] = second compound 1 µM, first compound 1 µM
[23] = second compound 1 µM, first compound 3.16 µM
[24] = second compound 1 µM, first compound 10 µM
[25] = second compound 3.16 µM, first compound 0.0316 µM
[26] = second compound 3.16 µM, first compound 0.1 µM
[27] = second compound 3.16 µM, first compound 0.316 µM
[28] = second compound 3.16 µM, first compound 1 µM
[29] = second compound 3.16 µM, first compound 3.16 µM
[30] = second compound 3.16 µM, first compound 10 µM
[31] = second compound 10 µM, first compound 0.0316 µM
[32] = second compound 10 µM, first compound 0.1 µM
[33] = second compound 10 µM, first compound 0.316 µM
[34] = second compound 10 µM, first compound 1 µM
[35] = second compound 10 µM, first compound 3.16 µM
[36] = second compound 10 µM, first compound 10 µM
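Further: spheroids exposed to drugs for 7 days before viability reading.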
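Wherever viability, T/C is given: 100% = DMSO vehicle control viability.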

SMILES: C=CC(=O)N1CCN(c2nc(=O)n(-c3c(C)ccnc3C(C)C)c3nc(-c4c(O)cccc4F)c(F)cc23)C(C)C1 (stereo unspecified) + CN(C)c1ccc(Nc2c3ccc(NC(=O)CCN4CCCC4)cc3nc3cc(NC(=O)CCN4CCCC4)ccc23)cc1
- pIC50 (second compound 0.0316 µM): < 5.00
- pIC50 (second compound 0.1 µM): < 5.00
- pIC50 (second compound 0.316 µM): < 5.00
- pIC50 (second compound 1 µM): < 5.00
- pIC50 (second compound 3.16 µM): < 5.00
- pIC50 (second compound 10 µM): < 5.00
- viability, T/C [1]: 114%
- viability, T/C [2]: 94.2%
- viability, T/C [3]: 112%
- viability, T/C [4]: 101%
- viability, T/C [5]: 98.2%
- viability, T/C [6]: 69.6%
- viability, T/C [7]: 110%
- viability, T/C [8]: 102%
- viability, T/C [9]: 96.9%
- viability, T/C [10]: 105%
- viability, T/C [11]: 103%
- viability, T/C [12]: 69.2%
- viability, T/C [13]: 110%
- viability, T/C [14]: 99.5%
- viability, T/C [15]: 98.8%
- viability, T/C [16]: 97.3%
- viability, T/C [17]: 96.9%
- viability, T/C [18]: 77.9%
- viability, T/C [19]: 96.2%
- viability, T/C [20]: 108%
- viability, T/C [21]: 103%
- viability, T/C [22]: 103%
- viability, T/C [23]: 93.7%
- viability, T/C [24]: 83.6%
- viability, T/C [25]: 86.6%
- viability, T/C [26]: 103%
- viability, T/C [27]: 94.2%
- viability, T/C [28]: 92.1%
- viability, T/C [29]: 111%
- viability, T/C [30]: 67.6%
- viability, T/C [31]: 71.3%
- viability, T/C [32]: 70.3%
- viability, T/C [33]: 77.2%
- viability, T/C [34]: 75.6%
- viability, T/C [35]: 76.3%
- viability, T/C [36]: 58.3%

- pIC50 (second compound 0.0316 µM): < 5.00
- pIC50 (second compound 0.1 µM): < 5.00
- pIC50 (second compound 0.316 µM): < 5.00
- pIC50 (second compound 1 µM): < 5.00
- pIC50 (second compound 3.16 µM): < 5.00
- pIC50 (second compound 10 µM): 5.47
SMILES: Cc1cccc(N(C)C(=O)C2C(O)CCN2c2nc(C)cc(C(F)(F)F)c2C#N)c1 (stereo unspecified) + Cc1cnc(CNC(=O)c2c(=O)c3ccc(N4CCCN(C)CC4)nc3n3c2sc2ccccc23)cn1
- viability, T/C [1]: 123%
- viability, T/C [2]: 98.5%
- viability, T/C [3]: 106%
- viability, T/C [4]: 98.5%
- viability, T/C [5]: 104%
- viability, T/C [6]: 99.3%
- viability, T/C [7]: 87%
- viability, T/C [8]: 87%
- viability, T/C [9]: 93.8%
- viability, T/C [10]: 92.4%
- viability, T/C [11]: 86.3%
- viability, T/C [12]: 90.9%
- viability, T/C [13]: 74.5%
- viability, T/C [14]: 77.9%
- viability, T/C [15]: 81.7%
- viability, T/C [16]: 80.6%
- viability, T/C [17]: 85.4%
- viability, T/C [18]: 80.6%
- viability, T/C [19]: 63.1%
- viability, T/C [20]: 70.7%
- viability, T/C [21]: 60.7%
- viability, T/C [22]: 64.7%
- viability, T/C [23]: 68.5%
- viability, T/C [24]: 66.3%
- viability, T/C [25]: 64.6%
- viability, T/C [26]: 57.9%
- viability, T/C [27]: 62%
- viability, T/C [28]: 52.1%
- viability, T/C [29]: 59%
- viability, T/C [30]: 54.4%
- viability, T/C [31]: 50.7%
- viability, T/C [32]: 49.8%
- viability, T/C [33]: 49.3%
- viability, T/C [34]: 51.8%
- viability, T/C [35]: 51%
- viability, T/C [36]: 41.8%

SMILES: C=CC(=O)N1CCN(c2nc(=O)n(-c3c(C)ccnc3C(C)C)c3nc(-c4c(O)cccc4F)c(F)cc23)C(C)C1 (stereo unspecified) + Cc1[nH]c2ccc(F)cc2c1-c1nc2c3cccnc3c3ncccc3c2[nH]1
- pIC50 (second compound 0.0316 µM): < 5.00
- pIC50 (second compound 0.1 µM): < 5.00
- pIC50 (second compound 0.316 µM): < 5.00
- pIC50 (second compound 1 µM): < 5.00
- pIC50 (second compound 3.16 µM): < 5.00
- pIC50 (second compound 10 µM): < 5.00
- viability, T/C [1]: 91.6%
- viability, T/C [2]: 102%
- viability, T/C [3]: 98%
- viability, T/C [4]: 100%
- viability, T/C [5]: 103%
- viability, T/C [6]: 69.3%
- viability, T/C [7]: 97%
- viability, T/C [8]: 97.1%
- viability, T/C [9]: 95.2%
- viability, T/C [10]: 107%
- viability, T/C [11]: 90.8%
- viability, T/C [12]: 67.8%
- viability, T/C [13]: 91.5%
- viability, T/C [14]: 108%
- viability, T/C [15]: 89.5%
- viability, T/C [16]: 99.7%
- viability, T/C [17]: 89.8%
- viability, T/C [18]: 67%
- viability, T/C [19]: 95.6%
- viability, T/C [20]: 82.5%
- viability, T/C [21]: 99.8%
- viability, T/C [22]: 97.5%
- viability, T/C [23]: 90.8%
- viability, T/C [24]: 75.8%
- viability, T/C [25]: 90.7%
- viability, T/C [26]: 88.2%
- viability, T/C [27]: 91.9%
- viability, T/C [28]: 95.1%
- viability, T/C [29]: 90.8%
- viability, T/C [30]: 73.3%
- viability, T/C [31]: 71%
- viability, T/C [32]: 72%
- viability, T/C [33]: 83.1%
- viability, T/C [34]: 72.1%
- viability, T/C [35]: 85.3%
- viability, T/C [36]: 56.4%
